The source of these data is patent publication US9232796B2, “Herbicidal compositions comprising 4-amino-3-chloro-5-fluoro-6-(4-chloro-2-fluoro-3-methoxyphenyl) pyridine-2-carboxylic acid or a derivative thereof and acetyl-CoA carboxylase (ACCase) inhibitors” (DOW AGROSCIENCES LLC, priority 2012, dated 2016).

One assay has as its system ECHCG. Kind of assay: Example VI in-water applied ternary mixtures, greenhouse, transplanted paddy rice weeds. Type of assay: in vivo, Echinochloa crus-galli (L.) Beauv. In a few lines:
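Compound A (SC, acid-equivalent basis) alone or with cyhalofop-R-butyl or metamifop plus a third herbicide, injected into paddy water of greenhouse-grown transplanted rice and weeds at 1st–4th leaf stage (~29/26 °C). Visual injury scored 0–100% after ~3 weeks vs untreated; expected mixture effects by Colby's equation.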

The test system of the next assay is APESV. Put plainly: Example IV postemergence foliar-applied, greenhouse, cereal crops weeds. The class given is in vivo, Apera spica-venti (L.) Beauv. The method, then: Seeds of the desired test plant species were planted in Sun Gro MetroMix® 306 planting mixture, which typically has a pH of 6.0 to 6.8 and an organic matter content of about 30 percent, in plastic pots with a surface area of 103.2 square centimeters (cm^2). […] The plants were grown for 7-36 days in a greenhouse with an approximate 14 hour photoperiod which was maintained at about 18° C. during the day and about 17° C. during the night. Nutrients and water were added on a regular basis and supplemental lighting was provided with overhead metal halide 1000-Watt lamps as necessary. The plants were employed for testing when they reached the second or third true leaf stage.
Treatments consisted of the benzyl ester of 4-amino-3-chloro-5-fluoro-6-(4-chloro-2-fluoro-3-methoxy-phenyl)pyridine-2-carboxylic acid (Compound A), formulated as an SC, a second cereal herbicide alone and then both in combination.
Other herbicidal components were applied on an active ingredient basis and included acetyl-CoA carboxylase (ACCase)-inhibiting herbicides clodinafop-propargyl, fenoxaprop-P-ethyl, pinoxaden and tralkoxydim.
Measured aliquots of benzyl ester of 4-amino-3-chloro-5-fluoro-6-(4-chloro-2-fluoro-3-methoxy-phenyl)pyridine-2-carboxylic acid (Compound A) were placed in 25 milliliter (mL) glass vials and diluted in a volume of 1.25% (v/v) Agri-Dex® crop oil concentrate to obtain stock solutions. Compound requirements are based upon a 12 mL application volume at a rate of 187 liters per hectare (L/ha). […] Formulated compounds were applied to the plant material with an overhead Mandel track sprayer equipped with an 8002E nozzle calibrated to deliver 187 L/ha over an application area of 0.503 square meters (m^2) at a spray height of 18 inches (46 cm) above average plant canopy. Control plants were sprayed in the same manner with the solvent blank.
The treated plants and control plants were placed in a greenhouse as described above and watered by sub-irrigation to prevent wash-off of the test compounds. After 20-22 days, the condition of the test plants as compared with that of the control plants was determined visually and scored on a scale of 0 to 100 percent where 0 corresponds to no injury and 100 corresponds to complete kill.
Colby's equation was used to determine the herbicidal effects expected from the mixtures (Colby, S. R. 1967. Calculation of the synergistic and antagonistic response of herbicide combinations. Weeds 15:20-22.).
The following equation was used to calculate the expected activity of mixtures containing two active ingredients, A and B: Expected=A+B−(A×B/100)

Consider `CCCCOC(=O)[C@@H](C)Oc1ccc(Oc2ccc(C#N)cc2F)cc1` [Cyhalofop-butyl, butyl(2R)-2-[4-(4-cyano-2-fluorophenoxy)phenoxy]propanoate, reference compound], for which the “Visual Weed Control (%) - 21 DAA ECHCG Obs” value was 0% with ECHCG (22.5 gai/ha, first set); 0% with ECHCG (22.5 gai/ha, first sub-table); 30% with ECHCG (45 gai/ha); 3% with ECHCG (45 gai/ha, first set); 3% in the assay on ECHCG (45 gai/ha, first sub-table); 30% with ECHCG (45 gai/ha, second set). Moreover, the “Visual Weed Control (%) - 21 DAA ECHCG Obs” value in the assay on ECHCG (45 gai/ha, second sub-table) is reported as 30%; in the assay with ECHCG (Table 67, 45 gai/ha, 21 DAA), 30%; in the assay on ECHCG (Table 68, 45 gai/ha, 21 DAA) it was 30%.

As to `COc1c(Cl)ccc(-c2nc(C(=O)OCc3ccccc3)c(Cl)c(N)c2F)c1F` [Compound A Benzyl Ester, benzyl ester of 4-amino-3-chloro-5-fluoro-6-(4-chloro-2-fluoro-3-methoxy-phenyl)pyridine-2-carboxylic acid], the “Visual Weed Control (%) - 21 DAA APESV Obs” value in the assay on APESV (Compound A Benzyl Ester 5 gai/ha) and with APESV (Compound A Benzyl Ester 10 gai/ha) was 0% in each case. Besides, the “Visual Weed Control (%) - 21 DAA ECHCG Obs” value in the assay on ECHCG (1.09 gae/ha, first set) was 0%; with ECHCG (1.09 gae/ha, first sub-table) it was 0%; in the assay on ECHCG (2.19 gae/ha, first set), 7%; in the assay with ECHCG (2.19 gae/ha, first sub-table) it was 7%; in the assay on ECHCG (4 gae/ha), 25%; in the assay on ECHCG (4 gae/ha, second set), 25%. The “Visual Weed Control (%) - 21 DAA ECHCG Obs” value in the assay on ECHCG (4 gae/ha, second sub-table) came to 25%; in the assay on ECHCG (8 gae/ha), 45%; in the assay with ECHCG (8 gae/ha, second set), 45%; in the assay with ECHCG (8 gae/ha, second sub-table), 45%; in the assay on ECHCG (16 gae/ha), 99%; with ECHCG (16 gae/ha, second set), 99%. For the same molecule, the “Visual Weed Control (%) - 21 DAA ECHCG Obs” value in the assay on ECHCG (16 gae/ha, second sub-table) is given as 99%; with ECHCG (Table 67, 4 gae/ha, 21 DAA) it was 25%; in the assay on ECHCG (Table 68, 4 gae/ha, 21 DAA), 25%; in the assay on ECHCG (Table 68, 8 gae/ha, 21 DAA) it was 45%; with ECHCG (Table 68, 16 gae/ha, 21 DAA) it was 99%.
